Data reported in patent publication US8486939B2, “Pyrimidinyl and 1,3,5-triazinyl benzimidazoles and their use in cancer therapy” (Pathway Therapeutics Inc., priority 2009, dated 2013).

Assays:
[1] = test system: PI3K; settings: background, literature; cited from earlier work
[2] = test system: human tumor xenografts; settings: mice with human tumor xenografts; cited from earlier work
[3] = molecular target: p110α/p85 (Homo sapiens, UniProt P42336); assay: Inhibition of isolated enzyme (lipid kinase assay, [γ33P]ATP, TLC); format: biochemical; settings: recombinant enzyme, 100 μM ATP, 1 hr room temperature, average of two experiments
Sequence of p110α/p85 (P42336 whole entry): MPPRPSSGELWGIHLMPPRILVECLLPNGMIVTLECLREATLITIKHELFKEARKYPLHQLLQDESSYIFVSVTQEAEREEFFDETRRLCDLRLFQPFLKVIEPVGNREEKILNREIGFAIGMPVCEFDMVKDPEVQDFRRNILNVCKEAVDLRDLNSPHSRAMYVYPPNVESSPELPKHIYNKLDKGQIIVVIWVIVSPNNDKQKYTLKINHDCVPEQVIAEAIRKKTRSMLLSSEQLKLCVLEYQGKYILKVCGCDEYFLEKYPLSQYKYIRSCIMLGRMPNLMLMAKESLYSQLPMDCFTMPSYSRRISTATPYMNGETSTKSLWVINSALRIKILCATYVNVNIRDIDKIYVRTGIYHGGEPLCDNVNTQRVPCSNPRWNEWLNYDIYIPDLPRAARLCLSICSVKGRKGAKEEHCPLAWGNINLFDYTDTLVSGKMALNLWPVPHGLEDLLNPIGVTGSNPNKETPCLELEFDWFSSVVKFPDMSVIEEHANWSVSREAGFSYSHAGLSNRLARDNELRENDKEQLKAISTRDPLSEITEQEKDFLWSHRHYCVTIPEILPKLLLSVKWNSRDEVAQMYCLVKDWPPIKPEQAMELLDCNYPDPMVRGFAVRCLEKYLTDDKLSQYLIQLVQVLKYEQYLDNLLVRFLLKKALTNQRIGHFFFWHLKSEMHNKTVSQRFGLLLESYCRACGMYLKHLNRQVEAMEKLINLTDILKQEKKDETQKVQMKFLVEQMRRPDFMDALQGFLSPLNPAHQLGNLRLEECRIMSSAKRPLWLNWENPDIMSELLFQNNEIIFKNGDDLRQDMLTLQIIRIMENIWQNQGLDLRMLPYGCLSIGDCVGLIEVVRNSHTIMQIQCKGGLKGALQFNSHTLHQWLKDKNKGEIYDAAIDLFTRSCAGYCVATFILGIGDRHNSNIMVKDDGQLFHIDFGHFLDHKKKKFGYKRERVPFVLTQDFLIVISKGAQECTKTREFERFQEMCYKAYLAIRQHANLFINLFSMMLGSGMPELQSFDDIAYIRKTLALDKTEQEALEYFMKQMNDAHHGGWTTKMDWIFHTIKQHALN
Sequence of p110α/p85 (P27986 whole entry partner): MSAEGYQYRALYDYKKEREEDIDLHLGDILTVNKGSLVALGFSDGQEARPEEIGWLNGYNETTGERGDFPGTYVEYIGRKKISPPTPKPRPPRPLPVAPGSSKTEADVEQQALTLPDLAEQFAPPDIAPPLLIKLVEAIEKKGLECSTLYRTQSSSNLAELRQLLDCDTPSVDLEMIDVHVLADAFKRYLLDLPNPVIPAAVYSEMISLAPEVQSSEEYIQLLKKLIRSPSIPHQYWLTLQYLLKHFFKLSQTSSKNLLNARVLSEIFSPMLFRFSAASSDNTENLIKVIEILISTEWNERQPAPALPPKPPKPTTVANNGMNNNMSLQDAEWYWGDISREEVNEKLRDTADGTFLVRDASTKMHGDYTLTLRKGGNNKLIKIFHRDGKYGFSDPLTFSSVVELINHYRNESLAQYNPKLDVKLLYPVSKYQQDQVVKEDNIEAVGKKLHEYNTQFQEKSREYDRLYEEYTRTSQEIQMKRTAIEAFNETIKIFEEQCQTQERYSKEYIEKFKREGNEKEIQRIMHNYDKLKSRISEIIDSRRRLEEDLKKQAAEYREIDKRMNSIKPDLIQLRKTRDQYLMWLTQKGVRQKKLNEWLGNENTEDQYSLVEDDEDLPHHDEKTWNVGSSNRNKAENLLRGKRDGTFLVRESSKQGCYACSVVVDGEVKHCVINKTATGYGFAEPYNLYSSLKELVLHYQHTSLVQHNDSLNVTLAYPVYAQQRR
Outline: (§1)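 Each recombinant p110/p85 enzyme (0.1 μg) was incubated with 10 μg L-α-phosphatidylinositol in Tris-HCl pH 7.4 buffer with NaCl and EDTA, 1% final DMSO, and was started with ATP mix (100 μM ATP, 5 mM MgCl2, [γ33P]ATP). Reactions ran 1 h at room temperature, and the lipids were extracted, TLC-separated and phosphorimaged. IC50 came from nine concentrations and is the mean of two experiments.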

[4] = molecular target: p110β/p85 (Homo sapiens, UniProt P42338); assay: as above; format: biochemical; settings: recombinant enzyme, 100 μM ATP, 1 hr room temperature, average of two experiments
Sequence of p110β/p85 (P42338 whole entry, species assumed): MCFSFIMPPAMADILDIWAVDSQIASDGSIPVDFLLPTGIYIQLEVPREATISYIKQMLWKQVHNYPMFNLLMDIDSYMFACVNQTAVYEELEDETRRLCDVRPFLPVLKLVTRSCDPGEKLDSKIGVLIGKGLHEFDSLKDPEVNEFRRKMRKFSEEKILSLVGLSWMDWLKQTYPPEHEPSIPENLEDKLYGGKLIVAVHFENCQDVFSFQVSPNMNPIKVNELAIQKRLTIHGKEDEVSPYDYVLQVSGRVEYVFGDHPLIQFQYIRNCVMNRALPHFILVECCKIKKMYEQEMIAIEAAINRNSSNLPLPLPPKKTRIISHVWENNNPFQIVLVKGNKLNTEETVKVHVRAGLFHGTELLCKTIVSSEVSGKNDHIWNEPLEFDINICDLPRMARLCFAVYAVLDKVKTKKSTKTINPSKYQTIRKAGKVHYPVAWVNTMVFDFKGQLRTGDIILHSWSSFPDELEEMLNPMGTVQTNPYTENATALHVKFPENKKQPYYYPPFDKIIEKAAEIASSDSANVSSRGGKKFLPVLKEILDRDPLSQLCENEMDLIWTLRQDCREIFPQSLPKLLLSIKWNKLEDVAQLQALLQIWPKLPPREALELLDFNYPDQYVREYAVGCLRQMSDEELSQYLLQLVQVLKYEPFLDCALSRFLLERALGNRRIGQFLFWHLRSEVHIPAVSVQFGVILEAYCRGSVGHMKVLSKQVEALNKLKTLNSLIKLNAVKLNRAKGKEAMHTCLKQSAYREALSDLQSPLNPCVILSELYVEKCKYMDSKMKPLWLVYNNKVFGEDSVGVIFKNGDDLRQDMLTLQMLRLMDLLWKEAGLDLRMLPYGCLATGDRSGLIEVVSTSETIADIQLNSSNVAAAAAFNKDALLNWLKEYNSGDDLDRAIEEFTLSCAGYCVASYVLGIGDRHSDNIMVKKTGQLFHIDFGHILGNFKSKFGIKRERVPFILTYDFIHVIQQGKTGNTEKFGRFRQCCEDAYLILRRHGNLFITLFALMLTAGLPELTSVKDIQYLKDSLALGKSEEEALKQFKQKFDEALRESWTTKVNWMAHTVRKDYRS
Sequence of p110β/p85 (P27986 whole entry partner, species assumed): as the sequence (P27986 whole entry partner) above
Outline: as §1

[5] = molecular target: p110δ/p85 (Homo sapiens, UniProt O00329); assay: as above; format: biochemical; settings: recombinant enzyme, 100 μM ATP, 1 hr room temperature, average of two experiments
Sequence of p110δ/p85 (O00329 whole entry, species assumed): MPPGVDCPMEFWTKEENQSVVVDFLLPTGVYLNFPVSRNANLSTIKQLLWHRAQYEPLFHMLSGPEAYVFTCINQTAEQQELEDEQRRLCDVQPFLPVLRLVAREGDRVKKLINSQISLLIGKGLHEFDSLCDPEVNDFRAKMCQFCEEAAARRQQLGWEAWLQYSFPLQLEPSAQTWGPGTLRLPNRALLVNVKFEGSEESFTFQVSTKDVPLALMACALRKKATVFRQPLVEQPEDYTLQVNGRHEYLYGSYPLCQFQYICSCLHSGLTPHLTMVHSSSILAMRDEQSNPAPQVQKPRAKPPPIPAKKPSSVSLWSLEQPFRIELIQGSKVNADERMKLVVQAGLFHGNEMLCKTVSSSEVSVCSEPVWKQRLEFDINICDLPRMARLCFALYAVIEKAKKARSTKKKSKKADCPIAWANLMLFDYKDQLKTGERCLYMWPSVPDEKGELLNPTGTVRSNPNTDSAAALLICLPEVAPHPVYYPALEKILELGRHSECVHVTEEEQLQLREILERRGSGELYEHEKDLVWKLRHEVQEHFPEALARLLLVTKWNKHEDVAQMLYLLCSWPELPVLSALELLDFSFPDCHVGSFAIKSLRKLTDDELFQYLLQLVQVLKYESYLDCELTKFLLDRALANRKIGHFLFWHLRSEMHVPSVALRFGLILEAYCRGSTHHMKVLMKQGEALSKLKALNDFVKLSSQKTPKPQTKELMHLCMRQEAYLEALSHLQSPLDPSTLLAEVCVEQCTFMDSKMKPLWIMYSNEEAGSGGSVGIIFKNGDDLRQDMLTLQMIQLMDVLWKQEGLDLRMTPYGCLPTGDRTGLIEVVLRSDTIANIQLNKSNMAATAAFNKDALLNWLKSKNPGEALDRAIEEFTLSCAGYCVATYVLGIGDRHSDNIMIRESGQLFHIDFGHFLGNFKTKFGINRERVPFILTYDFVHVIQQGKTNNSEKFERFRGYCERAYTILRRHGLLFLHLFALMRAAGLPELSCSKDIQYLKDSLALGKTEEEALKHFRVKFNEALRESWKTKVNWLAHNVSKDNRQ
Sequence of p110δ/p85 (P27986 whole entry partner, species assumed): as the sequence (P27986 whole entry partner) above
Outline: as §1

[6] = test system: NZB5; assay: Cellular growth inhibition (3H-thymidine incorporation); format: cell-based; settings: Homo sapiens, five days incubation, 3H-thymidine over the last 6 hrs, read-out: Cell IC50* NZB5
Experimental: (§2) The compounds were evaluated against two early passage human cell lines NZB5 and NZOV9 (Marshall et al., Oncol. Res. 2004, 14, 297). The cells were grown in ITS medium (α-modified minimal essential medium supplemented insulin, transferrin, selenite, and 5% fetal bovine serum) and grown on 96-well tissue culture plates under an atmosphere of 5% O2, 5% CO2, and 90% N2. Individual wells contained 500-1,000 cells (depending on the growth rate) in a volume of 150 μL. Compounds were added at 10-fold concentration steps to a maximum of 20 μM and plates were incubated for five days, with ^3H-thymidine being added over the last 6 hrs. Cells were harvested and incorporated radioactivity measured. Duplicate samples were analyzed for each compound dose with multiple control samples. Data were fitted by a least-squares method to an exponential of the form y=y0+ae^−bx, where y is the radioactivity (corrected for background and normalized to 100% of the control), x is the […], and y0, a, and b are variables, and the IC50 value defined as the compound concentration reducing ^3H-thymidine levels by 50%.

[7] = test system: NZOV9; assay: as above; format: cell-based; settings: Homo sapiens, five days incubation, 3H-thymidine over the last 6 hrs, read-out: Cell IC50* NZOV9
Experimental: as §2

Row | SMILES | PI3K isoform selectivity [1] | tolerability [2] | IC50 [3] | IC50 [4] | IC50 [5] | IC50 [6] | IC50 [7] | melting point
1 | Cc1ccccc1-n1c(Cn2cnc3c(N)ncnc32)nc2cccc(C)c2c1=O [IC87114] | δ-selective | – | – | – | – | – | – | –
2 | Cc1cc(C(C)Nc2ccccc2)c2nc(N3CCOCC3)cc(=O)n2c1 (centres unmarked) [TGX221] | β-selective | – | – | – | – | – | – | –
3 | O=c1cc(N2CCOCC2)oc2c(-c3ccccc3)cccc12 [LY294002] | – | well-tolerated | – | – | – | – | – | –
4 | FC(F)c1nc2ccccc2n1-c1nc(NCc2cccnc2)nc(N2CCOCC2)n1 [Example 14, 4-[2-(difluoromethyl)-1H-benzimidazol-1-yl]-6-(4-morpholinyl)-N-(3-pyridinylmethyl)-1,3,5-triazin-2-amine] | – | – | 100 to 1000 nM | 100 to 1000 nM | < 100 nM | 1000 to 10000 nM | 100 to 1000 nM | 160 to 161 °C
5 | O=S(=O)(c1ccccc1)c1nc(N2CCOCC2)nc(-n2c(C(F)F)nc3ccccc32)n1 [Example 12, 2-(difluoromethyl)-1-[4-(4-morpholinyl)-6-(phenylsulfonyl)-1,3,5-triazin-2-yl]-1H-benzimidazole] | – | – | 1000 to 10000 nM | 1000 to 10000 nM | 1000 to 10000 nM | > 10000 nM | > 10000 nM | 237 to 239 °C
6 | COc1cccc2c1nc(C(F)F)n2-c1nc(Nc2ccc(Cl)nc2)nc(N2CCOCC2)n1 [Example 30, N-(6-chloro-3-pyridinyl)-4-[2-(difluoromethyl)-4-methoxy-1H-benzimidazol-1-yl]-6-(4-morpholinyl)-1,3,5-triazin-2-amine] | – | – | < 100 nM | 100 to 1000 nM | < 100 nM | < 100 nM | < 100 nM | 260 to 262 °C
7 | COc1cccc2c1nc(C(F)F)n2-c1nc(Nc2cccnc2)nc(N2CCOCC2)n1 [Example 2, 4-[2-(difluoromethyl)-4-methoxy-1H-benzimidazol-1-yl]-6-(4-morpholinyl)-N-(3-pyridinyl)-1,3,5-triazin-2-amine] | – | – | < 100 nM | 100 to 1000 nM | < 100 nM | < 100 nM | < 100 nM | 221 to 223 °C
8 | COc1ccncc1Nc1nc(N2CCOCC2)nc(-n2c(C(F)F)nc3c(OC)cccc32)n1 [Example 27, 4-[2-(difluoromethyl)-4-methoxy-1H-benzimidazol-1-yl]-N-(4-methoxy-3-pyridinyl)-6-(4-morpholinyl)-1,3,5-triazin-2-amine] | – | – | < 100 nM | 100 to 1000 nM | < 100 nM | 100 to 1000 nM | < 100 nM | 239 to 241 °C
9 | COc1cccc2c1nc(C(F)F)n2-c1nc(Nc2ccncn2)nc(N2CCOCC2)n1 [Example 36, 4-[2-(difluoromethyl)-4-methoxy-1H-benzimidazol-1-yl]-6-(4-morpholinyl)-N-(4-pyrimidinyl)-1,3,5-triazin-2-amine] | – | – | < 100 nM | 100 to 1000 nM | < 100 nM | < 100 nM | < 100 nM | 234 to 236 °C
10 | COc1cccc2c1nc(C(F)F)n2-c1nc(Nc2cncnc2)nc(N2CCOCC2)n1 [Example 31, 4-[2-(difluoromethyl)-4-methoxy-1H-benzimidazol-1-yl]-6-(4-morpholinyl)-N-(5-pyrimidinyl)-1,3,5-triazin-2-amine] | – | – | < 100 nM | 100 to 1000 nM | < 100 nM | < 100 nM | < 100 nM | 293 to 295 °C
11 | Oc1cccc(-c2nc(N3CCOCC3)c3oc4ncccc4c3n2)c1 [PI103] | slightly α-selective | – | – | – | – | – | – | –
12 | FC(F)c1nc2ccccc2n1-c1nc(N2CCOCC2)nc(N2CCOCC2)n1 [ZSTK474] | non-selective | – | – | – | – | – | – | –
13 | FC(F)c1nc2ccccc2n1-c1nc(Nc2ccncc2)nc(N2CCOCC2)n1 [Example 17, 4-[2-(difluoromethyl)-1H-benzimidazol-1-yl]-6-(4-morpholinyl)-N-(4-pyridinyl)-1,3,5-triazin-2-amine] | – | – | < 100 nM | 100 to 1000 nM | < 100 nM | < 100 nM | < 100 nM | 222 to 224 °C
14 | CNc1ccc(Nc2nc(N3CCOCC3)nc(-n3c(C(F)F)nc4c(OC)cccc43)n2)cn1 [Example 38, N^5-[4-[2-(difluoromethyl)-4-methoxy-1H-benzimidazol-1-yl]-6-(4-morpholinyl)-1,3,5-triazin-2-yl]-N^2-methyl-2,5-pyridinediamine] | – | – | < 100 nM | 100 to 1000 nM | < 100 nM | < 100 nM | < 100 nM | 218 to 221 °C
